The values that follow come from ChEMBL document CHEMBL4837238, “Feature-Based Molecular Networking for the Targeted Identification of Gq-Inhibiting FR900359 Derivatives” (J Nat Prod, 2021).

Assay [1] in a line: Displacement of [3H]-PSB15900 from human platelet membrane Gq incubated for 90 mins by scintillation counter method. In kind it is cell membranes. In general terms: Loss of bound radioactivity is the signal in a displacement assay; it reports binding, not function.
In assay [2] the target is T1, Guanine nucleotide-binding protein G(q) subunit alpha (Homo sapiens, UniProt P50148).
T1 sequence (P50148 whole entry): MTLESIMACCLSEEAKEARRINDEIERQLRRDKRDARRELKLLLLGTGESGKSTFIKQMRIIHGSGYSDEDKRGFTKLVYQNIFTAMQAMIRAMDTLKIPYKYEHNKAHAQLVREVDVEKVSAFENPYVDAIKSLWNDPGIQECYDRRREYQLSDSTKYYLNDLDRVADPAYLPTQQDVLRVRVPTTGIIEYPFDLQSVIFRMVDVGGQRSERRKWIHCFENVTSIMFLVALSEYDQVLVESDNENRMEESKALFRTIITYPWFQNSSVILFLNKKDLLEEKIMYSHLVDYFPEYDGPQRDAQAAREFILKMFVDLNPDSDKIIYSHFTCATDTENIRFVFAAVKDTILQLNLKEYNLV
The assay can be described thus: Inhibition of wild type GNAQ (unknown origin) expressed in CRISPR/Cas9 engineered HEK293 cells. In kind it is cell-based.

Starred links: 1 amine or outer side, 2 acyl side, 3 side chain; linkers in the order of their positions; H or OH if unused. Positions of bridges follow the written chain, without caps; N, C: chain ends. Non-standard residues stand in square brackets, D forms with d. Residues, ends and D or L forms follow the SMILES beside them. *: point of attachment. Leu(3R-OH,Nα-propionyl) = CCC(=O)N[C@H](C(=O)*)[C@H](O)C(C)C; X1 = CC(C)[C@@H](O[*:3])[C@H](N[*:1])C(=O)[*:2]; NMeT = CN[C@H](C(=O)O)[C@@H](C)O; dPhLac = O=C(O)[C@H](O)Cc1ccccc1; NMeA = CN[C@@H](C)C(=O)O; NMeDha = C=C(NC)C(=O)O

A word on the pKi: it is the Ki on a negative log10 scale, so that one unit is a factor of ten. Low readings indicate a large Ki, high ones a small Ki. Take `C=C1C(=O)N[C@@H](C)C(=O)N(C)[C@@H](C)C(=O)N[C@@H]([C@H](OC(=O)[C@@H](NC(=O)CC)[C@H](O)C(C)C)C(C)C)C(=O)N(C)[C@@H]([C@@H](C)OC)C(=O)O[C@H](C(C)C)[C@H](NC(C)=O)C(=O)O[C@H](Cc2ccccc2)C(=O)N1C` (Ac-[X1][dPhLac][NMeDha]A[NMeA][X1](Leu(3R-OH,Nα-propionyl))[NMeT](Me); ester 1-C): the pKi in assay [1] is reported as 8.66.

What is called IC50 is the concentration needed to halve the response being measured. Read a low IC50 as higher potency. `C=C1C(=O)N[C@@H](C)C(=O)N(C)[C@@H](C)C(=O)N[C@@H]([C@H](OC(=O)[C@@H](NC(C)=O)C(O)C(C)C)C(C)C)C(=O)N(C)/C(=C\C)C(=O)O[C@H](C(C)C)[C@H](NC(C)=O)C(=O)O[C@H](Cc2ccccc2)C(=O)N1C` (single isomer, unassigned) showed an IC50 in assay [2] of 2750 nM. The compound further gave a pKi in assay [1] of 7.5.
